These results are taken from patent publication US8207172B2 (Bayer Intellectual Property GmbH, priority 2004, dated 2012).

Counter-ions that a name gives are not always drawn.

The subject of assay [1] is BT474 (human breast carcinoma). Nature of the assay: In vitro tumor cell proliferation assay (Cell Titer-Glo luminescent cell viability), BT474. The assay is classed as cell-based. Conditions: BT-474, 72 h, BT474 cells, 72 hours of drug exposure, ATP luminescence readout, read-out: IC50, anti-proliferative activity (inhibition of cell proliferation). In short, it runs like this: (§1)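 Seeding density 2.5×10^3 cells/well; 72 h drug exposure at 37° C; endpoint CellTiter-Glo luminescence, reported as IC50.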

Assay [2] relates to A431 cells (human epidermoid carcinoma). Nature of the assay: In vitro tumor cell proliferation assay (Cell Titer-Glo luminescent cell viability), A431. The assay is classed as cell-based. Conditions: A-431, 72 h, 72 hours of drug exposure, ATP luminescence readout, read-out: IC50, anti-proliferative activity (inhibition of cell proliferation). Summed up: as §1

Regarding `CC(C)N1CCC(n2cc3c(n2)CCc2c-3sc3ncnc(Nc4ccc(OCc5cccc(F)c5)c(Cl)c4)c23)CC1` [Example 227, N-{3-chloro-4-[(3-fluorobenzyl)oxy]phenyl}-2-(1-isopropylpiperidin-4-yl)-4,5-dihydro-2H-pyrimido[5′,4′:4,5]thieno[2,3-e]indazol-6-amine], the IC50 in assay [1] is no more than 1 µM; in assay [2] it was no more than 5 µM.

In the case of `CC[N+]1(CC)CCC(n2cc3c(n2)CCc2c-3sc3ncnc(Nc4ccc(OCc5cccc(F)c5)c(Cl)c4)c23)CC1` [Example 226, 4-[6-({3-chloro-4-[(3-fluorobenzyl)oxy]phenyl}amino)-4,5-dihydro-2H-pyrimido[5′,4′:4,5]thieno[2,3-e]indazol-2-yl]-1,1-diethylpiperidinium trifluoroacetate], the IC50 is no more than 1 µM in assay [1] and no more than 5 µM in assay [2].

Take `CN1CCN(CCn2cc3c(n2)CCc2c-3sc3ncnc(Nc4ccc(O)c(Cl)c4)c23)CC1` [Example 46, 2-chloro-4-({2-[2-(4-methylpiperazin-1-yl)ethyl]-4,5-dihydro-2H-pyrimido[5′,4′:4,5]thieno[2,3-e]indazol-6-yl}amino)phenol]: the IC50 is no more than 5 µM in assay [1] and no more than 50 µM in assay [2].

For `Fc1cccc(COc2ccc(Nc3ncnc4sc5c(c34)CCc3nn(CCN4CCNCC4)cc3-5)cc2Cl)c1` [Example 176, N-{3-chloro-4-[(3-fluorobenzyl)oxy]phenyl}-2-(2-piperazin-1-ylethyl)-4,5-dihydro-2H-pyrimido[5′,4′:4,5]thieno[2,3-e]indazol-6-amine], the IC50 is no more than 1 µM in assay [1] and no more than 5 µM in assay [2].

Regarding `COCCN(CCOC)CCn1cc2c(n1)CCc1c-2sc2ncnc(Nc3ccc4c(cnn4Cc4cccc(F)c4)c3)c12` [Example 285, 2-{2-[bis(2-methoxyethyl)amino]ethyl}-N-[1-(3-fluorobenzyl)-1H-indazol-5-yl]-4,5-dihydro-2H-pyrimido[5′,4′:4,5]thieno[2,3-e]indazol-6-amine], the IC50 in assay [1] was no more than 1 µM; in assay [2] it was no more than 5 µM.

In the case of `CN(C)[C@H]1CCN(CCn2cc3c(n2)CCc2c-3sc3ncnc(Nc4ccc(OCc5cccc(F)c5)c(Cl)c4)c23)C1` [Example 58, N-{3-chloro-4-[(3-fluorobenzyl)oxy]phenyl}-2-{2-[(3S)-3-(dimethylamino)pyrrolidin 1-yl]ethyl}-4,5-dihydro-2H-pyrimido[5′,4′:4,5]thieno[2,3-e]indazol-6-amine], the IC50 in assay [1] is no more than 1 µM; in assay [2] it was no more than 5 µM.

As to `CC(C)CNC[C@@H](O)Cn1cc2c(n1)CCc1c-2sc2ncnc(Nc3ccc(OCc4cccc(F)c4)c(Cl)c3)c12` [Example 161, (2R)-1-[6-({3-chloro-4-[(3-fluorobenzyl)oxy]phenyl}amino)-4,5-dihydro-2H-pyrimido[5′,4′:4,5]thieno[2,3-e]indazol-2-yl]-3-(isobutylamino)propan-2-ol trifluoroacetate (salt)], the IC50 in assay [1] was no more than 5 µM; in assay [2], no more than 50 µM.

In the case of `COCCN1CCN(C[C@@H](O)Cn2ncc3c2CCc2c-3sc3ncnc(Nc4ccc(OCc5cccc(F)c5)c(Cl)c4)c23)CC1` [Example 134, (2R)-1-[6-({3-chloro-4-[(3-fluorobenzyl)oxy]phenyl}amino)-4,5-dihydro-3H-pyrimido[5′,4′:4,5]thieno[2,3-e]indazol-3-yl]-3-[4-(2-methoxyethyl)piperazin-1-yl]propan-2-ol], the IC50 is no more than 1 µM in assay [1] and no more than 50 µM in assay [2].

Consider `Fc1cccc(Cn2ncc3cc(Nc4ncnc5sc6c(c45)CCc4nn(CCn5ccnc5)cc4-6)ccc32)c1` [Example 279, N-[1-(3-fluorobenzyl)-1H-indazol-5-yl]-2-[2-(1H-imidazol-1-yl)ethyl]-4,5-dihydro-2H-pyrimido[5′,4′:4,5]thieno[2,3-e]indazol-6-amine], for which the figures for the IC50 in assay [1] and in assay [2] were no more than 1 µM and no more than 5 µM, respectively.

For `O=C(Cn1ncc2c1CCc1c-2sc2ncnc(Nc3ccc(OCc4cccc(F)c4)c(Cl)c3)c12)N(CCO)CCO` [Example 212, 2-[6-({3-chloro-4-[(3-fluorobenzyl)oxy]phenyl}amino)-4,5-dihydro-3H-pyrimido[5′,4′:4,5]thieno[2,3-e]indazol-3-yl]-N,N-bis(2-hydroxyethyl)acetamide], the IC50 was no more than 1 µM in assay [1] and no more than 50 µM in assay [2].

On to `OCCn1cc2c(n1)CCc1c-2sc2ncnc(Nc3ccc(OCc4cccc(F)c4)c(Cl)c3)c12` [Example 56, 2-[6-({3-chloro-4-[(3-fluorobenzyl)oxy]phenyl}amino)-4,5-dihydro-2H-pyrimido[5′,4′:4,5]thieno[2,3-e]indazol-2-yl]ethanol], for which the IC50 in assay [1] is no more than 1 µM; in assay [2], no more than 5 µM.

Consider `OCCn1ncc2c1CCc1c-2sc2ncnc(Nc3ccc(OCc4cccc(F)c4)c(Cl)c3)c12` [Example 80, 2-[6-({3-chloro-4-[(3-fluorobenzyl)oxy]phenyl}amino)-4,5-dihydro-3H-pyrimido[5′,4′:4,5]thieno[2,3-e]indazol-3-yl]ethanol], for which the results for the IC50 in assay [1] and in assay [2] were no more than 1 µM and no more than 5 µM, respectively.

As for `Fc1ccc(Nc2ncnc3sc4c(c23)CCc2nn(CCN3CCN(c5cnccn5)CC3)cc2-4)cc1Cl` [Example 22, N-(3-chloro-4-fluorophenyl)-2-[2-(4-pyrazin-2-ylpiperazin-1-yl)ethyl]-4,5-dihydro-2H-pyrimido[5′,4′:4,5]thieno[2,3-e]indazol-6-amine], the IC50 in assay [1] and in assay [2] was no more than 5 µM each time.

On to `Cc1nccn1CCn1cc2c(n1)CCc1c-2sc2ncnc(Nc3ccc(F)c(Cl)c3)c12` [Example 37, N-(3-chloro-4-fluorophenyl)-2-[2-(2-methyl-1H-imidazol-1-yl)ethyl]-4,5-dihydro-2H-pyrimido[5′,4′:4,5]thieno[2,3-e]indazol-6-amine], for which the IC50 in assay [1] and in assay [2] was no more than 5 µM each time.

Consider `O=C(CCl)N1CCC(n2cc3c(n2)CCc2c-3sc3ncnc(Nc4ccc(OCc5cccc(F)c5)c(Cl)c4)c23)CC1` [Example 218, 2-[1-(chloroacetyl)piperidin-4-yl]-N-{3-chloro-4-[(3-fluorobenzyl)oxy]phenyl}-4,5-dihydro-2H-pyrimido[5′,4′:4,5]thieno[2,3-e]indazol-6-amine], for which the IC50 in assay [1] is no more than 1 µM; in assay [2], no more than 50 µM.

`Cc1cc(Nc2ncnc3sc4c(c23)CCc2nn(CCN3CCN(C)CC3)cc2-4)ccc1OCc1cccc(F)c1` [Example 335, N-{4-[(3-fluorobenzyl)oxy]-3-methylphenyl}-2-[2-(4-methylpiperazin-1-yl)ethyl]-4,5-dihydro-2H-pyrimido[5′,4′:4,5]thieno[2,3-e]indazol-6-amine]: the IC50 was no more than 1 µM in assay [1] and no more than 5 µM in assay [2].

As for `CCOC(=O)N1CCN(C(=O)Cn2ncc3c2CCc2c-3sc3ncnc(Nc4ccc(OCc5cccc(F)c5)c(Cl)c4)c23)CC1` [Example 198, ethyl 4-{[6-({3-chloro-4-[(3-fluorobenzyl)oxy]phenyl}amino)-4,5-dihydro-3H-pyrimido[5′,4′:4,5]thieno[2,3-e]indazol-3-yl]acetyl}piperazine-1-carboxylate], the IC50 in assay [1] was no more than 1 µM; in assay [2] it was no more than 50 µM.

For the molecule `O[C@H](Cn1ccnc1)Cn1ncc2c1CCc1c-2sc2ncnc(Nc3ccc(OCc4cccc(F)c4)c(Cl)c3)c12` [Example 170, (2R)-1-[6-({3-chloro-4-[(3-fluorobenzyl)oxy]phenyl}amino)-4,5-dihydro-3H-pyrimido[5′,4′:4,5]thieno[2,3-e]indazol-3-yl]-3-(1H-imidazol-1-yl)propan-2-ol trifluoroacetate (salt)], the IC50 in assay [1] was no more than 1 µM; in assay [2], no more than 50 µM.

Take `CS(=O)(=O)OCCn1ncc2c1CCc1c-2sc2ncnc(Nc3ccc(F)c(Cl)c3)c12` [Example 89, 2-{6-[(3-chloro-4-fluorophenyl)amino]-4,5-dihydro-3H-pyrimido[5′,4′:4,5]thieno[2,3-e]indazol-3-yl}ethyl methanesulfonate]: the IC50 in assay [1] and in assay [2] was no more than 50 µM in each case.

`OCCn1cc2c(n1)CCc1c-2sc2ncnc(Nc3ccc(OCc4ccccc4)c(Cl)c3)c12` [Example 124, 2-(6-{[4-(benzyloxy)-3-chlorophenyl]amino}-4,5-dihydro-2H-pyrimido[5′,4′:4,5]thieno[2,3-e]indazol-2-yl)ethanol]: the IC50 was no more than 1 µM in assay [1] and no more than 50 µM in assay [2].

As to `COC(=O)[C@@H]1CCCN1CCn1cc2c(n1)CCc1c-2sc2ncnc(Nc3ccc(F)c(Cl)c3)c12` [Example 34, methyl 1-(2-{6-[(3-chloro-4-fluorophenyl)amino]-4,5-dihydro-2H-pyrimido[5′,4′:4,5]thieno[2,3-e]indazol-2-yl}ethyl)-L-prolinate], the IC50 in assay [1] and in assay [2] was no more than 5 µM each time.

As for `COc1cccc(COc2ccc(Nc3ncnc4sc5c(c34)CCc3c-5cnn3CCN3CCN(C)CC3)cc2Cl)c1` [Example 318, N-{3-chloro-4-[(3-methoxybenzyl)oxy]phenyl}-3-[2-(4-methylpiperazin-1-yl)ethyl]-4,5-dihydro-3H-pyrimido[5′,4′:4,5]thieno[2,3-e]indazol-6-amine], the IC50 in assay [1] and in assay [2] was no more than 5 µM each time.

For the molecule `CN1CCC(n2cc3c(n2)CCc2c-3sc3ncnc(Nc4ccc(OCc5cccc(F)c5)c(Cl)c4)c23)CC1` [Example 228, N-{3-chloro-4-[(3-fluorobenzyl)oxy]phenyl}-2-(1-methylpiperidin-4-yl)-4,5-dihydro-2H-pyrimido[5′,4′:4,5]thieno[2,3-e]indazol-6-amine], the IC50 was no more than 1 µM in assay [1] and no more than 5 µM in assay [2].

Regarding `CN1CCN(CCn2cc3c(n2)CCc2c-3sc3ncnc(Nc4ccc5c(cnn5Cc5ccccc5)c4)c23)CC1` [Example 39, N-(1-benzyl-1H-indazol-5-yl)-2-[2 (4-methylpiperazin-1-yl)ethyl]-4,5-dihydro-2H-pyrimido[5′,4′:4,5]thieno[2,3-e]indazol-6-amine], the values for the IC50 in assay [1] and in assay [2] were no more than 1 µM and no more than 50 µM, respectively.
